Entries after “also recorded” stand apart in the source; their conditions may differ.
System: phenylquinone-induced muscular writhing
Test: Analgesic activity, phenylquinone-writhing test
Type: in vivo, Swiss albino mice
Settings: Mus musculus, sc
Description: (§1) The compounds of formula (1) have anti-inflammatory, analgesic, hyperglycemic, and/or hypoglycemic properties. […] A. Winter, p.190-202, Int. Symposium on Non-Steroidal Anti-Inflammatory Drugs, Milan, 1964, Excerpta Medica Foundation, Amsterdam. […] J. Pharmac. Chemother. 32, 295 (1968). […] Chem. 3, 99 (1961) and by Barthelmai et al., in Klin. Wchschr. 40, 585 (1962).
(§2) Initially the activity of the compound tested on an animal was determined at a single dose. If the substance was active at this dose, it was subjected to limited repeat testing. If the presence of activity was confirmed by repetition of the testing, a dose response relation was constructed and the effective dose (ED50) determined. If toxicity was encountered with the initial dose, the dose was reduced until one was reached which was tolerated by the animals tested.
Substances were administered subcutaneously to five Swiss albino mice, weighing 18 to 22 grams, before determining their activity in the phenylquinone-writhing test (see Collier et al, cited above). The active ingredients were suspended in a solution of physiological saline and "Tween 80™" surfactant. A dose amounting to 10 milliliters of physiological saline solution and active ingredient per kilogram of bodyweight was administered to the mice according to the dosage as set out in Table 2. The test results are shown in Table 2, the compounds tested being compared to Aspirin™ and dextropropoxyphene™.

Structure (SMILES) | ED50 [mg/kg]
CC(=O)Oc1ccccc1C(=O)O [Aspirin, reference compound] | 52
CCC(=O)O[C@](Cc1ccccc1)(c1ccccc1)[C@H](C)CN(C)C [Dextropropoxyphene, reference compound] | 56

Same assay, conditions: Mus musculus, sc, mice, 8 mg/kg; read-out: Response % inhibition

Structure (SMILES) | inhibition in vivo at 8 mg/kg [%]
O=C(Cc1cccnc1)NN1CC=CCC1 [Compound A-48, N-(3-picolylcarbonylamino)-1,2,3,6-tetrahydropyridine] | 28

Same assay, conditions: Mus musculus, sc, mice, 16 mg/kg; read-out: Response % inhibition

Structure (SMILES) | inhibition in vivo at 16 mg/kg [%]
COC(=O)N1C=CC(C(=O)NN2CC=CCC2)=CC1 [Compound A-45, N-[4-(1-methoxycarbonyl-1,2-dihydropyridyl)carbonylamino]-1,2,3,6-tetrahydropyridine] | 61
O=C(Cc1cccnc1)NN1CC=CCC1 [Compound A-48, N-(3-picolylcarbonylamino)-1,2,3,6-tetrahydropyridine] | 45

Same assay, conditions: Mus musculus, sc, mice, 16.5 mg/kg; read-out: Response % inhibition

Structure (SMILES) | inhibition in vivo at 16.5 mg/kg [%]
O=C(NN1CC=CCC1)C1CCCCC1 [Compound A-63, N-(cyclohexylcarbonylamino)-1,2,3,6-tetrahydropyridine] | 50

Same assay, conditions: Mus musculus, sc, mice, 25 mg/kg; read-out: Response % inhibition

Structure (SMILES) | inhibition in vivo at 25 mg/kg [%]
O=C(COc1ccccc1)NN1CC=CCC1 [Compound A-62, N-(phenoxymethylenecarbonylamino)-1,2,3,6-tetrahydropyridine] | 50

Same assay, conditions: Mus musculus, sc, mice, 32 mg/kg; read-out: Response % inhibition

Structure (SMILES) | inhibition in vivo at 32 mg/kg [%]
COC(=O)N1C=CC(C(=O)NN2CC=CCC2)=CC1 [Compound A-45, N-[4-(1-methoxycarbonyl-1,2-dihydropyridyl)carbonylamino]-1,2,3,6-tetrahydropyridine] | 61
O=C(Cc1cccnc1)NN1CC=CCC1 [Compound A-48, N-(3-picolylcarbonylamino)-1,2,3,6-tetrahydropyridine] | 94

Same assay, conditions: Mus musculus, sc, mice, 60 mg/kg; read-out: Response % inhibition

Structure (SMILES) | inhibition in vivo at 60 mg/kg [%]
O=C(Cc1ccc2c(c1)OCO2)NN1CC=CCC1 [Compound A-70, N-(3,4-methylenedioxyphenylmethylenecarbonylamino)-1,2,3,6-tetrahydropyridine] | 80

Same assay, conditions: Mus musculus, sc, mice, 64 mg/kg; read-out: Response % inhibition

Structure (SMILES) | inhibition in vivo at 64 mg/kg [%]
COC(=O)N1CC=C(C(=O)NN2CC=CCC2)CC1 [Compound A-49, N-[4-(1-methoxycarbonyl-1,2,3,6-tetrahydropyridyl)carbonylamino]-1,2,3,6-tetrahydropyridine] | 3

Same assay, conditions: Mus musculus, sc, mice, 120 mg/kg; read-out: Response % inhibition

Structure (SMILES) | inhibition in vivo at 120 mg/kg [%]
O=C(Cc1ccc2c(c1)OCO2)NN1CC=CCC1 [Compound A-70, N-(3,4-methylenedioxyphenylmethylenecarbonylamino)-1,2,3,6-tetrahydropyridine] | 91

Same assay, conditions: Mus musculus, sc, mice, 128 mg/kg; read-out: Response % inhibition

Structure (SMILES) | inhibition in vivo at 128 mg/kg [%]
COC(=O)N1C=CC(C(=O)NN2CC=CCC2)=CC1 [Compound A-45, N-[4-(1-methoxycarbonyl-1,2-dihydropyridyl)carbonylamino]-1,2,3,6-tetrahydropyridine] | 97
O=C(Cc1cccnc1)NN1CC=CCC1 [Compound A-48, N-(3-picolylcarbonylamino)-1,2,3,6-tetrahydropyridine] | 100
COC(=O)N1CC=C(C(=O)NN2CC=CCC2)CC1 [Compound A-49, N-[4-(1-methoxycarbonyl-1,2,3,6-tetrahydropyridyl)carbonylamino]-1,2,3,6-tetrahydropyridine] | 78

Same assay, conditions: Mus musculus, sc, mice, 256 mg/kg; read-out: Response % inhibition

Structure (SMILES) | inhibition in vivo at 256 mg/kg [%]
COC(=O)N1C=CC(C(=O)NN2CC=CCC2)=CC1 [Compound A-45, N-[4-(1-methoxycarbonyl-1,2-dihydropyridyl)carbonylamino]-1,2,3,6-tetrahydropyridine] | 95
O=C(Cc1cccnc1)NN1CC=CCC1 [Compound A-48, N-(3-picolylcarbonylamino)-1,2,3,6-tetrahydropyridine] | 100
COC(=O)N1CC=C(C(=O)NN2CC=CCC2)CC1 [Compound A-49, N-[4-(1-methoxycarbonyl-1,2,3,6-tetrahydropyridyl)carbonylamino]-1,2,3,6-tetrahydropyridine] | 95

Same assay, conditions: Mus musculus, sc, mice, Litchfield and Wilcoxon; read-out: ED50

Structure (SMILES) | ED50 [mg/kg]
O=C(Cc1cccnc1)NN1CC=CCC1 [Compound A-48, N-(3-picolylcarbonylamino)-1,2,3,6-tetrahydropyridine] | 14.5
O=C(COc1ccccc1)NN1CC=CCC1 [Compound A-62, N-(phenoxymethylenecarbonylamino)-1,2,3,6-tetrahydropyridine] | 25
O=C(NN1CC=CCC1)C1CCCCC1 [Compound A-63, N-(cyclohexylcarbonylamino)-1,2,3,6-tetrahydropyridine] | 16.5

Same assay, conditions: mouse, in vivo

Structure (SMILES) | Physiological activity: analgesic (in words)
COC(=O)N1C=CC(C(=O)NN2CC=CCC2)=CC1 [Compound A-45, N-[4-(1-methoxycarbonyl-1,2-dihydropyridyl)carbonylamino]-1,2,3,6-tetrahydropyridine] | active analgesics; also recorded: analgesic
O=C(Cc1cccnc1)NN1CC=CCC1 [Compound A-48, N-(3-picolylcarbonylamino)-1,2,3,6-tetrahydropyridine] | active analgesics; also recorded: analgesic
COC(=O)N1CC=C(C(=O)NN2CC=CCC2)CC1 [Compound A-49, N-[4-(1-methoxycarbonyl-1,2,3,6-tetrahydropyridyl)carbonylamino]-1,2,3,6-tetrahydropyridine] | active analgesics; also recorded: analgesic
O=C(COc1ccccc1)NN1CC=CCC1 [Compound A-62, N-(phenoxymethylenecarbonylamino)-1,2,3,6-tetrahydropyridine] | active analgesics; also recorded: analgesic
O=C(NN1CC=CCC1)C1CCCCC1 [Compound A-63, N-(cyclohexylcarbonylamino)-1,2,3,6-tetrahydropyridine] | active analgesics; also recorded: analgesic
O=C(Cc1ccc2c(c1)OCO2)NN1CC=CCC1 [Compound A-70, N-(3,4-methylenedioxyphenylmethylenecarbonylamino)-1,2,3,6-tetrahydropyridine] | active analgesics; also recorded: analgesic

System: carrageenan-induced paw edema
Test: Anti-inflammatory activity, carrageenan-induced paw edema
Parameters: species or system Sprague-Dawley rats
Settings: rat, in vivo
Description: as §1, §2
Substances were administered subcutaneously to six Sprague-Dawley rats, weighing 100-120 g. A suspension of 0.03% carageenan was injected under the plantar skin of a hind paw. The increase in volume of the inflamed paw was measured 3 and 5 hours after drug administration.

Structure (SMILES) | Physiological activity: anti-inflammatory (in words)
COC(=O)N1C=CC(C(=O)NN2CC=CCC2)=CC1 [Compound A-45, N-[4-(1-methoxycarbonyl-1,2-dihydropyridyl)carbonylamino]-1,2,3,6-tetrahydropyridine] | striking anti-inflammatory action, comparing favourably with the standard compound used
O=C(Cc1cccnc1)NN1CC=CCC1 [Compound A-48, N-(3-picolylcarbonylamino)-1,2,3,6-tetrahydropyridine] | striking anti-inflammatory action, comparing favourably with the standard compound used
COC(=O)N1CC=C(C(=O)NN2CC=CCC2)CC1 [Compound A-49, N-[4-(1-methoxycarbonyl-1,2,3,6-tetrahydropyridyl)carbonylamino]-1,2,3,6-tetrahydropyridine] | anti-inflammatory
O=C(COc1ccccc1)NN1CC=CCC1 [Compound A-62, N-(phenoxymethylenecarbonylamino)-1,2,3,6-tetrahydropyridine] | striking anti-inflammatory action, comparing favourably with the standard compound used
O=C(NN1CC=CCC1)C1CCCCC1 [Compound A-63, N-(cyclohexylcarbonylamino)-1,2,3,6-tetrahydropyridine] | striking anti-inflammatory action, comparing favourably with the standard compound used

System: blood glucose
Test: Determination of blood glucose (hyperglycemic / hypoglycemic activity)
Type: in vivo, Wistar rats
Settings: Rattus norvegicus; oral, fasted rats, 2 hours; dose elevating blood glucose by 50 percent; read-out: ED50, hyperglycemic activity, post-treatment 2 hours
Description: as §1, §2
Compounds were suspended in distilled water and were administered orally to overnight-fasted Wistar rats. Capillary blood samples were obtained from the tail at zero, two, and four hours post-treatment and the sera derived from these samples were analyzed for glucose by spectrophotometric determination of enzymatically produced NADH2 (reduced form of nicotinamide adenine dinucleotide), using the commercial reagent "Escalab G-15™" according to the method described by Holland et al and by Barthelmai et al, both cited above. The test results are shown in Tables 4 and 5, and the ED50 values shown in Table 4 were calculated as the dose of compound which elevated blood glucose levels by 50 percent.

Structure (SMILES) | ED50 [mg/kg]
O=C(COc1ccccc1)NN1CC=CCC1 [Compound A-62, N-(phenoxymethylenecarbonylamino)-1,2,3,6-tetrahydropyridine] | 41
O=C(NN1CC=CCC1)C1CCCCC1 [Compound A-63, N-(cyclohexylcarbonylamino)-1,2,3,6-tetrahydropyridine] | 36.5

Same assay, conditions: Rattus norvegicus; oral, fasted rats, 4 hours; dose elevating blood glucose by 50 percent; read-out: ED50, hyperglycemic activity, post-treatment 4 hours

Structure (SMILES) | ED50 [mg/kg]
O=C(COc1ccccc1)NN1CC=CCC1 [Compound A-62, N-(phenoxymethylenecarbonylamino)-1,2,3,6-tetrahydropyridine] | 53
O=C(NN1CC=CCC1)C1CCCCC1 [Compound A-63, N-(cyclohexylcarbonylamino)-1,2,3,6-tetrahydropyridine] | 53

Same assay, conditions: rat, in vivo

Structure (SMILES) | Physiological activity: hyperglycemic (in words)
O=C(COc1ccccc1)NN1CC=CCC1 [Compound A-62, N-(phenoxymethylenecarbonylamino)-1,2,3,6-tetrahydropyridine] | significant hyperglycemic activity; also recorded: hypergylcemic
O=C(NN1CC=CCC1)C1CCCCC1 [Compound A-63, N-(cyclohexylcarbonylamino)-1,2,3,6-tetrahydropyridine] | significant hyperglycemic activity

Source: US4338445A, “N-(Carbonylamino)-tetrahydropyridyl derivatives” (Canadian Patents & Development Limited, priority 1979, dated 1982)
